In US20040127492A1 (Pharmacia Corporation, priority 2002, published 2004):
Where a name gives a salt, the structure may show the parent alone. Read-outs that look alike come from different tables or passages of the source.

Molecular target: MAPKAPK2 (MK-2) (Homo sapiens, UniProt P49137)
Assay: Determination of MK-2 IC50 (HSP-peptide phosphorylation, anion exchange resin capture assay)
Type: biochemical
Protocol: Determination of MK-2 IC50:
Recombinant MAPKAPK2 was phosphorylated at a concentration of 42-78 μM by incubation with 0.23 μM of active p38α in 50 mM HEPES, 0.1 mM EDTA, 10 mM magnesium acetate, and 0.25 mM ATP, pH 7.5 for one hour at 30° C.
The phosphorylation of HSP-peptide ([…]) by MAPKAPK2 was measured using an anion exchange resin capture assay method. The reaction was carried out in 50 mM β-glycerolphosphate, 0.04% BSA, 10 mM magnesium acetate, 2% DMSO and 0.8 mM dithiotheritol, pH 7.5 in the presence of the HSP-peptide with 0.2 μCi [γ^33P]ATP and 0.03 mM ATP. The reaction was initiated by the addition of 15 nM MAPKAPK2 and was allowed to incubate at 30° C. for 30 min. The reaction was terminated and [γ^33P]ATP was removed from solution by the addition of 150 μl of AG 1×8 ion exchange resin in 900 mM sodium formate pH 3.0. A 50 μl aliquot of head volume was removed from the quenched reaction mixture and added to a 96-well plate, 150 μl of Microscint-40 (Packard) was added and the amount of phosphorylated-peptide was determined. Allow the Microscint to sit in the plates for 60 minutes prior to counting.
Compounds are evaluated as potential inhibitors of the MK-2 kinase by measuring their effects on MK-2 phosphorylation of the peptide substrate. Compounds may be screened initially at two concentrations prior to determination of IC50 values. Screening results are expressed as percent inhibition at the concentrations of compound tested. For IC50 value determinations, Compounds are tested at six concentrations in ten-fold serial dilutions with each concentration tested in triplicate. Results are expressed as IC50 values in micromolar. The assay is performed at a final concentration of 2% DMSO.

[1] = Table 1, phenoxypyrazole MK-2 inhibitors, read-out: MK-2 Avg, IC50
[2] = Table 2, pyrazolylpyrazole MK-2 inhibitors, read-out: MK-2 Avg. IC50
[3] = Table 4, pyrimidylpyrazole MK-2 inhibitors, read-out: MK-2 Avg. IC50

Chain of MAPKAPK2 (MK-2) (P49137 whole entry, species assumed): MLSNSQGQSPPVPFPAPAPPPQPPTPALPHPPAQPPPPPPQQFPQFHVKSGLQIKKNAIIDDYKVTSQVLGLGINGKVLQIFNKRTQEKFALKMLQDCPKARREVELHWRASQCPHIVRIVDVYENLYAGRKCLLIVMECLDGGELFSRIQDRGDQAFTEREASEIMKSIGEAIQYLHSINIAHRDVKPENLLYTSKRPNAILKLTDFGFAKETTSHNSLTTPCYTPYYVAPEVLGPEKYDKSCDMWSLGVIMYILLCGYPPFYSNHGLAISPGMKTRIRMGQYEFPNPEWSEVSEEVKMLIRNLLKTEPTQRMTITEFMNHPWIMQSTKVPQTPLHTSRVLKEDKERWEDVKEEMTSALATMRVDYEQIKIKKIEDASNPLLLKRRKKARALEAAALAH

O=C(O)c1c2c(nn1CC=NO)-c1ccncc1CC2 [Example 229]
IC50 (read-out: MK-2 Avg. IC50): 71 µM

O=C(O)c1c2c(nn1CC(O)CN1CCOCC1)-c1ccncc1CC2 (stereo not drawn) [Example 260]
IC50 (read-out: MK-2 Avg. IC50): 128 µM

CSc1nccc2c1CCc1c-2nn(CCCN)c1C(=O)O [Example 234]
IC50 (read-out: MK-2 Avg. IC50): 83.4 µM

O=C(O)c1[nH]nc2c1CCc1cc(O)c(Br)cc1-2 [Example 66]
IC50 [1]: 163 µM

COc1cc2c(cc1-c1cccc(Cl)c1)-c1nn(CCCNC(=O)OC(C)(C)C)c(C(=O)O)c1CC2 [Example 50]
IC50 [1]: 104 µM

O=C1NCCCn2nc3c(c21)CCc1cc(O)ccc1-3 [Example 18]
IC50 [1]: 17 µM

O=C(O)c1c2c(nn1CC(O)CN1CCNCC1)-c1ccncc1CC2 (stereo not drawn) [Example 283]
IC50 (read-out: MK-2 Avg. IC50): 198 µM

C#Cc1cnc2c(c1)-c1nn(CCN)c(C(=O)OCC)c1CC2 [Example 222]
IC50 (read-out: MK-2 Avg. IC50): 62.5 µM

COC(=O)C1Cn2nc3c(c2C(=O)N1)CCc1cnccc1-3 (stereo not drawn) [Example 180]
IC50 (read-out: MK-2 Avg. IC50): 16.5 µM

C=CCn1nc2c(c1C(=O)O)CCc1c[n+]([O-])ccc1-2 [Example 230]
IC50 (read-out: MK-2 Avg. IC50): 75.4 µM

Cn1cnc(S(=O)(=O)NCCCn2nc3c(c2C(=O)O)CCc2cnccc2-3)c1 [Example 274]
IC50 (read-out: MK-2 Avg. IC50): 164 µM

NCCCNC(=O)c1[nH]nc2c1CCc1cnccc1-2 [Example 278]
IC50 (read-out: MK-2 Avg. IC50): 189 µM

O=C(NCCCn1nc2c(c1C(=O)O)CCc1cnccc1-2)c1ccncc1 [Example 253]
IC50 (read-out: MK-2 Avg. IC50): 109 µM

O=C1c2c3c(nn2CC2CCCN1C2)-c1ccncc1CC3 (stereo not drawn) [Example 281]
IC50 (read-out: MK-2 Avg. IC50): 191 µM

c1coc(-c2[nH]nc3c2CCc2cnccc2-3)c1 [Example 214]
IC50 (read-out: MK-2 Avg. IC50): 53.7 µM

O=C1NCCn2nc3c(c21)CCc1cnc(-c2ccc(OCc4ccccc4)cc2)cc1-3 [Example 205]
IC50 (read-out: MK-2 Avg. IC50): 36.4 µM

NCCCn1nc(-c2nnn[nH]2)c2c1-c1ccncc1CC2 [Example 247]
IC50 (read-out: MK-2 Avg. IC50): 100 µM

CCCn1nc2c(c1C(=O)O)CCc1cnccc1-2 [Example 187]
IC50 (read-out: MK-2 Avg. IC50): 20.1 µM

NCCCC1CNC(=O)c2c3c(nn21)-c1ccncc1CC3 (stereo not drawn) [Example 166]
IC50 (read-out: MK-2 Avg. IC50): 11 µM

ON=C1CCCn2nc3c(c21)CCc1cnccc1-3 [Example 263]
IC50 (MK-2 Avg. IC50): 131 µM

CCCCNC(=O)NCCCn1nc2c(c1C(=O)O)CCc1cnccc1-2 [Example 213]
IC50 (read-out: MK-2 Avg. IC50): 53.5 µM

N#CC1CCn2nc3c(c2C(=O)N1)CCc1cnccc1-3 (stereo not drawn) [Example 199]
IC50 (read-out: MK-2 Avg. IC50): 33.3 µM

O=C1NCCn2nc3c(c21)CCc1cnc(CCc2ccc(Cl)cc2)cc1-3 [Example 223]
IC50 (read-out: MK-2 Avg. IC50): 63.2 µM

CCOC(=O)c1c2c(nn1CCN)-c1ccncc1CC2 [Example 169]
IC50 (read-out: MK-2 Avg. IC50): 12.3 µM

CCOC(=O)c1[nH]nc2c1CCc1[nH]nc([S+](C)[O-])c1-2 (stereo not drawn) [Example 63]
IC50 [2]: ≥ 200 µM

CNC(=O)c1[nH]nc2c1CCc1cnccc1-2 [Example 265]
IC50 (read-out: MK-2 Avg. IC50): 135 µM

NC(=O)C1CCN(CCCn2nc3c(c2C(=O)O)CCc2cnccc2-3)CC1 [Example 210]
IC50 (read-out: MK-2 Avg. IC50): 47.9 µM

CN(C)CC(O)Cn1nc2c(c1C(=O)N(C)C)CCc1cnccc1-2 (stereo not drawn) [Example 228]
IC50 (read-out: MK-2 Avg. IC50): 69.3 µM

O=C(O)c1[nH]nc2c1CCc1cnccc1-2 [Example 224]
IC50 (read-out: MK-2 Avg. IC50): 63.4 µM

O=C(O)c1c2c(nn1CCO)-c1ccncc1CC2 [Example 173]
IC50 (read-out: MK-2 Avg. IC50): 14.3 µM

O=C1NCCCn2nc3c(c21)CCc1cnc(-c2ccncc2)nc1-3 [Example 9]
IC50 [3]: 8.62 µM

CN(C)CCNc1cc2c(cn1)CCc1c-2nn2c1C(=O)NCC2 [Example 220]
IC50 (read-out: MK-2 Avg. IC50): 60.7 µM

CCC(C)Nc1cc2c(cc1OC)CCc1c-2nn(CCCN)c1C(=O)O (stereo not drawn) [Example 74]
IC50 [1]: 196 µM

O=C1NCCCn2nc3c(c21)CCc1cnc(-c2cnc4ccccc4c2)nc1-3 [Example 4]
IC50 [3]: 1.47 µM

NC(=O)NCCCn1nc2c(c1C(=O)O)CCc1cnccc1-2 [Example 192]
IC50 (read-out: MK-2 Avg. IC50): 25.3 µM

O=C1NCCn2nc3c(c21)CCc1cnc(N2CCc4ccccc4C2)cc1-3 [Example 175]
IC50 (read-out: MK-2 Avg. IC50): 15 µM

CC(C)NCCn1nc2c(c1C(=O)O)CCc1cnccc1-2 [Example 182]
IC50 (read-out: MK-2 Avg. IC50): 17.7 µM

COc1cccc(-c2cc3c(cn2)CCc2c-3nn3c2C(=O)NCC3)c1 [Example 45]
IC50 (read-out: MK-2 Avg. IC50): 0.322 µM

O=C1NCCCn2nc3c(c21)CCc1cnc(-c2ccc(OCc4ccccc4)cc2)cc1-3 [Example 242]
IC50 (read-out: MK-2 Avg. IC50): 93.4 µM

O=C1NCCn2nc3c(c21)CCc1c-3ccnc1Nc1ccccc1 [Example 215]
IC50 (read-out: MK-2 Avg. IC50): 53.8 µM

O=C1NCCn2nc3c(c21)CCc1cnc(N2CCNCC2)cc1-3 [Example 225]
IC50 (read-out: MK-2 Avg. IC50): 64.9 µM

CN(C)CCCn1nc2c(c1C(=O)O)CCc1cnccc1-2 [Example 177]
IC50 (read-out: MK-2 Avg. IC50): 15.5 µM

CCOC(=O)c1[nH]nc2c1CCc1[nH]nc(SC)c1-2 [Example 65]
IC50 [2]: ≥ 200 µM

CCOC(=O)c1c2c(nn1CCN)-c1cc(Cl)ncc1CC2 [Example 204]
IC50 (read-out: MK-2 Avg. IC50): 36 µM

N#Cc1ccc(S(=O)(=O)NCCCn2nc3c(c2C(=O)O)CCc2cnccc2-3)cc1 [Example 262]
IC50 (read-out: MK-2 Avg. IC50): 130 µM

O=C(O)c1c2c(nn1CCCNCCc1c[nH]c3ccccc13)-c1ccncc1CC2 [Example 165]
IC50 (read-out: MK-2 Avg. IC50): 10.7 µM

CS(=O)(=O)c1n[nH]c2c1-c1n[nH]c(C(N)=O)c1CC2 [Example 58]
IC50 [2]: ≥ 200 µM

CCOC(=O)c1[nH]nc2c1CCc1[nH]nc(SCc3ccccc3)c1-2 [Example 61]
IC50 [2]: ≥ 200 µM

COc1ccc(-c2cc3c(cn2)CCc2c-3nn3c2C(=O)NCC3)cc1 [Example 62]
IC50 (read-out: MK-2 Avg. IC50): 0.587 µM

NCCCN1CCn2nc3c(c2C1=O)CCc1cnccc1-3 [Example 216]
IC50 (read-out: MK-2 Avg. IC50): 54.8 µM

CC(C)(C)c1ccc(-c2cc3c(cn2)CCc2c-3nn3c2C(=O)NCC3)cc1 [Example 248]
IC50 (read-out: MK-2 Avg. IC50): 101 µM

CC(C)S(=O)(=O)NCCCn1nc2c(c1C(=O)O)CCc1cnccc1-2 [Example 200]
IC50 (read-out: MK-2 Avg. IC50): 33.3 µM

NC(=O)C1CCN(CC(O)Cn2nc3c(c2C(=O)O)CCc2cnccc2-3)CC1 (stereo not drawn) [Example 240]
IC50 (read-out: MK-2 Avg. IC50): 87.6 µM

O=C(O)c1c2c(nn1CCCNC1CCCC1)-c1ccncc1CC2 [Example 164]
IC50 (read-out: MK-2 Avg. IC50): 10.4 µM

NC(=O)c1[nH]nc2c1CCc1[nH]nc(SCc3ccccc3)c1-2 [Example 25]
IC50 [2]: 80.7 µM

C[S+]([O-])c1n[nH]c2c1-c1n[nH]c(C(=O)O)c1CC2 (stereo not drawn) [Example 62]
IC50 [2]: ≥ 200 µM

CC(=O)Nc1ccc(S(=O)(=O)NCCCn2nc3c(c2C(=O)O)CCc2cnccc2-3)cc1 [Example 276]
IC50 (read-out: MK-2 Avg. IC50): 176 µM

O=C(O)c1c2c(nn1CCCNc1cccnc1)-c1ccncc1CC2 [Example 208]
IC50 (read-out: MK-2 Avg. IC50): 39.4 µM

CN(c1ccccc1)c1cc2c(cn1)CCc1c-2nn2c1C(=O)NCC2 [Example 250]
IC50 (read-out: MK-2 Avg. IC50): 101 µM

O=C1NCCn2nc3c(c21)CCc1cnc(-c2cccc4ncccc24)cc1-3 [Example 246]
IC50 (read-out: MK-2 Avg. IC50): 98.3 µM

CSc1n[nH]c2c1-c1n[nH]c(C(=O)O)c1CC2 [Example 64]
IC50 [2]: ≥ 200 µM

O=C(O)c1c2c(nn1CC(O)CNCc1cccs1)-c1ccncc1CC2 (stereo not drawn) [Example 206]
IC50 (read-out: MK-2 Avg. IC50): 36.8 µM

O=C(NCCCn1nc2c(c1C(=O)O)CCc1cnccc1-2)NCc1ccccc1 [Example 176]
IC50 (read-out: MK-2 Avg. IC50): 15.4 µM

COC(=O)c1c2c(nn1CCO)-c1ccncc1CC2 [Example 271, hydrochloride]
IC50 (read-out: MK-2 Avg. IC50): 161 µM

CCC(C)Nc1cc2c(cc1O)CCc1c-2nn(CCCN)c1C(=O)O (stereo not drawn) [Example 35]
IC50 [1]: 45.9 µM

NC(=O)CCCn1nc2c(c1C(=O)O)CCc1cnccc1-2 [Example 211]
IC50 (read-out: MK-2 Avg. IC50): 50.1 µM

O=C(NCCCn1nc2c(c1C(=O)O)CCc1cnccc1-2)c1cccnc1 [Example 162]
IC50 (read-out: MK-2 Avg. IC50): 10.4 µM

O=C1NCCn2nc3c(c21)CCc1cnc(/C=C/c2ccc(O)cc2)cc1-3 [Example 3]
IC50 (Table 5, other cyclic pyrazole MK-2 inhibiting compounds, read-out: MK-2 Avg. IC50): 0.164 µM

CCCCOc1ccc(S(=O)(=O)NCCCn2nc3c(c2C(=O)O)CCc2cnccc2-3)cc1 [Example 255]
IC50 (read-out: MK-2 Avg. IC50): 113 µM

CC(C)Cc1cc2c(cc1O)CCc1c-2nn(CCCN)c1C(=O)O [Example 25]
IC50 [1]: 20.8 µM

C=CCn1nc2c(c1C(=O)O)CCc1cnccc1-2 [Example 170]
IC50 (read-out: MK-2 Avg. IC50): 12.6 µM

O=C(Cc1cccs1)NCCCn1nc2c(c1C(=O)O)CCc1cnccc1-2 [Example 226]
IC50 (read-out: MK-2 Avg. IC50): 66.1 µM
